Experimental data as given in US5595730A, “Lactate dehydrogenase inhibitors in cosmetic compositions” (priority 1996, dated 1997).
Read-outs that look alike come from different tables or passages of the source.

How the values were obtained:
[1] = test system: Fibroblast Lactate Dehydrogenase; assay: Fibroblast lactate dehydrogenase (LDH) inhibition, cell lysate; type: biochemical, human
Procedure: (§1) All reagents were purchased from Sigma Chemical Co., St. Louis, Mo., USA. Sigma procedure No. 500 was modified for our purposes. One mL of pyruvate (pH=7.5) substrate (Sigma […]-1) was added to a vial containing 1 mg NADH (Sigma 340-101). In a 96-well plate, the following components were added to each test well: 10 μl pyruvate/NADH mixture, and 10 μl cell lysate. For preparation cell lysates, neonatal human keratinocytes or fibroblasts (Clonetic Corp., San Diego, Calif.) were cultured in tissue culture plates (Corning, USA). Cells were scraped in PBS (pH=7.4) and this solution was used as a source of L-lactate dehydrogenase. If such cell lysate was not available, a commercial preparation of L-lactic dehydrogenase (E.C.1.1.1.27), Sigma L9889, from porcine heart could be used in place of the cell lysate. For positive control, the inhibitor was replaced with 10 μl of PBS. For blank determination, the lysate or enzyme was replaced with […]. After mixing, the plate was incubated for 30 minutes at 37° C. Then 20 μl of color reagent (Sigma 505-2) was added to each well. After 20 minutes at room temperature, 150 μl of 0.4N NaOH was added, and the plate was read for absorbance at 490 nm in a Dynatech MR 7000 Microplate Reader. To calculate % inhibition, the control activity (CA) was first determined by subtracting the absorbance of the positive control from the blank. Then the activity in the presence of the inhibitor (IA) was calculated by subtracting the appropriate absorbance from the blank. % Inhibition was then calculated as: ((CA-IA)/CA)*100.

[2] = test system: Keratinocyte Lactate Dehydrogenase; assay: Keratinocyte lactate dehydrogenase (LDH) inhibition, cell lysate; type: biochemical, human
Procedure: as §1

[3] = test system: Normal human epidermal keratinocytes (NHEK); assay: Keratinocyte proliferation (DNA content, fluorometric); type: cell-based; settings: for activation at 313 µM / activation at 625 µM / activation at 1250 µM / activation at 2500 µM / activation at 5000 µM: Homo sapiens, NHEK, 72 h
Procedure: Normal human epidermal keratinocytes (NHEK) derived from neonatal foreskin were used for all experiments. Media were purchased from Clonetics Corp., San Diego, Calif. Cell stocks frozen in passage 2 were grown in Keratinocyte Growth Medium (KGM) and passaged when 70-80% confluent. Cells were seeded in 96 well plates (Corning) at a density of 7500 cells/well in KGM. After 24 hours, cells were rinsed and dosed with test compounds in 200 μl of Keratinocyte Basal Medium (KBM). Plates were incubated for three days at 37° C., 5% CO2. Cell proliferation was estimated by assaying for DNA content by a fluorometric method described by Rago et al. (Analytical Biochemistry, 191:31-34, 1990). Medium was removed and cells were rinsed with phosphate buffered saline solution. 100 μl of sterile distilled water was added to each well and plates were frozen at -70° C. for one and a half hours. Plates were thawed for one hour at which time 100 μl of a 20 ug/ml solution of Bisbenzimide H33258 fluorochrome (Calbiochem Corp., La Jolla, Calif.) was added to each well. The fluorochrome was prepared just prior to use in 10 mM Tris, 1 mM EDTA, 4M NaCI, pH 7.4. Plates were read in a Millipore Cytofluor fluorescent plate reader to quantify DNA (excitation 360 nm, emission 460 nm). Percent increase over control was calculated from blank-corrected readings as (treated-untreated)/(untreated)*100. Each data point in the Tables below represents a mean of 5 or 6 replicates.
The procedure of Example 2 was repeated except that various co-active ingredients were tested for their ability to stimulate keratinocyte proliferation.
The procedure of Example 2 was repeated to test the effect of combination of an LDH inhibitor with another carboxylic acid on keratinocyte proliferation.

[4] = Table 3, 0.313 mM, three days, read-out: Keratinocyte Proliferation (% increase over control)
[5] = Table 3, 0.625 mM, three days, read-out: Keratinocyte Proliferation (% increase over control)
[6] = Table 3, 1.25 mM, three days, read-out: Keratinocyte Proliferation (% increase over control)
[7] = Table 3, 2.5 mM, three days, read-out: Keratinocyte Proliferation (% increase over control)
[8] = Table 3, 5 mM, three days, read-out: Keratinocyte Proliferation (% increase over control)

| Compound | Fibroblast Lactate Dehydrogenase Inhibition (% Inhibition) ([1]; 0.625 mM) | Fibroblast Lactate Dehydrogenase Inhibition (% Inhibition) ([1]; 1.25 mM) | Fibroblast Lactate Dehydrogenase Inhibition (% Inhibition) ([1]; 2.5 mM) | Fibroblast Lactate Dehydrogenase Inhibition (% Inhibition) ([1]; 5 mM) | further results |
| --- | --- | --- | --- | --- | --- |
| O=C(O)CC(=O)O [Malonate] | 0% | 0% | 0% | 0% | – |
| C[C@@H](O)C(=O)O [D-lactate] | 0% | 0% | 0% | 0% | – |
| O=C(O)C[C@H](O)C(=O)O [L-malate] | 0% | 0% | 0% | 0% | – |
| O=C(O)C(=O)O [Oxalate] | 54% | 71% | 85% | 89% | Keratinocyte Lactate Dehydrogenase Inhibition (% Inhibition) ([2]; 0.625 mM): 39%; Keratinocyte Lactate Dehydrogenase Inhibition (% Inhibition) ([2]; 1.25 mM): 58%; Keratinocyte Lactate Dehydrogenase Inhibition (% Inhibition) ([2]; 2.5 mM): 76%; Keratinocyte Lactate Dehydrogenase Inhibition (% Inhibition) ([2]; 5 mM): 87%; activation at 313 µM ([3]; read-out: Keratinocyte Proliferation (% increase over control), Table 3, 0.313 mM, three days): 18%; activation at 625 µM ([3]; read-out: Keratinocyte Proliferation (% increase over control), Table 3, 0.625 mM, three days): 27%; activation at 1250 µM ([3]; read-out: Keratinocyte Proliferation (% increase over control), Table 3, 1.25 mM, three days): 2%; activation at 2500 µM ([3]; read-out: Keratinocyte Proliferation (% increase over control), Table 3, 2.5 mM, three days): 0%; activation at 5000 µM ([3]; read-out: Keratinocyte Proliferation (% increase over control), Table 3, 5 mM, three days): 0% |
| c1cn[nH]c1 [Pyrazole] | 0% | 0% | 0% | 0% | – |
| Methylpyrazole | 0% | 0% | 0% | 0% | – |
| C[C@H](O)C(=O)O [L-lactate] | 0% | 0% | 0% | 0% | – |
| O=C(O)C(=O)C(=O)O [Ketomalonate] | – | – | – | – | activation at 313 µM [3, 4]: 23%; activation at 625 µM [3, 5]: 10%; activation at 1250 µM [3, 6]: 0%; activation at 2500 µM [3, 7]: 0%; activation at 5000 µM [3, 8]: 0%; Keratinocyte proliferation, % Increase Over Control ([3]; Table 7, single agent alone, 0.156 mM): 20%; Keratinocyte proliferation, % Increase Over Control ([3]; Table 7, single agent alone, 0.313 mM): 48%; Keratinocyte proliferation, % Increase Over Control ([3]; Table 7, single agent alone, 0.625 mM): 50%; Keratinocyte proliferation, % Increase Over Control ([3]; Table 7, single agent alone, 1.25 mM): 59%; Keratinocyte proliferation, % Increase Over Control ([3]; Table 7, single agent alone, 2.5 mM): 45%; Keratinocyte proliferation, % Increase Over Control ([3]; Table 7, single agent alone, 5.0 mM): 20% |
| NCC(=O)O [Glycinate] | 0% | 0% | 0% | 0% | – |
| O=C(O)CO [Glycolate] | 0% | 0% | 0% | 0% | – |
| O=C(O)C(O)C(=O)O [Tartronate] | – | – | – | – | activation at 313 µM [3, 4]: 37%; activation at 625 µM [3, 5]: 45%; activation at 1250 µM [3, 6]: 51%; activation at 2500 µM [3, 7]: 50%; activation at 5000 µM [3, 8]: 17%; Keratinocyte proliferation, % Increase Over Control ([3]; Table 8, single agent alone, 0.156 mM): 44%; Keratinocyte proliferation, % Increase Over Control ([3]; Table 8, single agent alone, 0.313 mM): 69%; Keratinocyte proliferation, % Increase Over Control ([3]; Table 8, single agent alone, 0.625 mM): 58%; Keratinocyte proliferation, % Increase Over Control ([3]; Table 8, single agent alone, 1.25 mM): 67%; Keratinocyte proliferation, % Increase Over Control ([3]; Table 8, single agent alone, 2.5 mM): 76%; Keratinocyte proliferation, % Increase Over Control ([3]; Table 8, single agent alone, 5.0 mM): 21% |
| O=CC(=O)O [Glyoxylate] | – | – | – | – | activation at 313 µM [3, 4]: 33%; activation at 625 µM [3, 5]: 36%; activation at 1250 µM [3, 6]: 9%; activation at 2500 µM [3, 7]: 0%; activation at 5000 µM [3, 8]: 0% |
